Reference: US10562869B2, “Oxadiazole compounds” (REMYND NV, priority 2014, dated 2020)

What follows are compounds tested on M17_3TAU(P301L) cells (assay: Retinoic acid-induced cytotoxicity (LDH) in TAU-P301L expressing M17_3TAU(P301L) neuroblastoma cells). Details: Homo sapiens, Neuroblastoma cell, 168 h; toxicity inhibition (LDH) in M17_3TAU(P301L) cells challenged with retinoic acid, 7 days.
Type: cell-based
Excerpt: A TAU expression plasmid was constructed by sub-cloning the cDNA encoding for human TAU-P301L protein, wherein proline at position 301 was substituted by a leucine residue, into mammalian expression vector pcDNA3.1 resulting in the plasmid pcDNA3.1-TAUP301L. Plasmid pcDNA3.1-TAU P301L was transfected into human neuroblastoma cells (BE-M17; ATCC No. CRL-2267™) using lipofectamine reagent and subsequently, independent clonal cell lines with the plasmids stably integrated into the genome were selected by antibiotic resistance selection (Geneticin (G418)), resulting in cell line M17_3TAUP301L. Expression of the TAUP301L gene in the M17_3TAUP301L cells was confirmed by Western blot analysis.
M17_3TAU(P301L) cells were treated chronically with retinoic acid (RA) in low serum conditions to induce Alzheimer's disease-like intracellular signaling deregulation leading to increased TAU levels and subsequent cell death. Cytotoxicity of cells was measured by quantification of lactate dehydrogenase (LDH) levels. In dead cells LDH leaked out of the cells into the medium due to a loss of plasma-membrane integrity.
3 days preceding the experiment, a pre-culture of M17_3TAU(P301L) cells was prepared, starting from a stock culture, at a density of 50.000-100.000 cells/cm^2 in culture medium (Optimem Reduced Serum with phenol red (Invitrogen, Cat. 31985-047)) supplemented with 10% fetal calf serum (FCS), 1 mM sodium pyruvate, 1×non-essential amino acids (NEAA), 500 μg/ml G418 and 0.5×(ABAM). At the day of the experiment these precultures were diluted to ˜0.1·10^6 cells/ml in detection medium (Optimem Reduced Serum without phenol red (Gibco, Cat.11058-021) supplemented with 1% fetal calf serum (FCS), 1 mM sodium pyruvate, 1×non-essential amino acids (NEAA), 500 μg/ml G418 and 0.5×ABAM) and 60 μL of this suspension was dispensed per well into a 96-well microtiter plate. After 3 hours of incubation at 37° C./5% CO2 an equal volume of detection medium (without FCS) containing 3.75 μM RA was added and subsequently incubated for 7 days at 37° C./5% CO2. Then LDH activity was determined using the Promega Cytotox 96 Non-Radioactive cytotoxicity assay (Cat. G1780), according to the manufacturer's instructions. Cytotoxicity was defined as the ratio of LDH relative the total LDH in the cells and supernatant.
The assay described above using the M17_3TAU(P301L) cell line allowed to screen compounds for their ability to decrease cytotoxicity in RA-challenged cells. Compounds of the invention were tested for their ability to decrease toxicity at different concentrations, ranging from low non-effective concentrations to high potent concentrations. Afterwards, the dose-dependent inhibition curve was used to calculate their EC50. A compound was considered to be active in this test when it inhibited toxicity by more than 20% relative to untreated M17_3TAU(P301L) cells at a concentration of 10 μM or lower.

Row | Structure (SMILES) | EC50
1 | Cc1ccccc1CN1CCN(c2nc(-c3cccc(Cl)c3)no2)CC1 [Cmpd026, 3-(3-Chlorophenyl)-5-(4-(2-methylbenzyl)piperazin-1-yl)-1,2,4-oxadiazole] | 88 nM
2 | FC(F)(F)CCc1noc(N2CCN(Cc3ccccc3Cl)CC2)n1 [Cmpd177, 5-(4-(2-Chlorobenzyl)piperazin-1-yl)-3-(3,3,3-trifluoropropyl)-1,2,4-oxadiazole] | 172 nM
3 | Fc1ccc(-c2noc(N3CCN(CCc4ccc(Cl)cc4)CC3)n2)cc1F [Cmpd036, 1-[2-(4-Chloro-phenyl)-ethyl]-4-[3-(3,4-difluoro-phenyl)-[1,2,4]oxadiazol-5-yl]-piperazine] | 22 nM
4 | FC(F)(F)CCCN1CCN(c2nc(Cc3ccc(Cl)cc3)no2)CC1 [Cmpd068, 1-[3-(4-Chloro-benzyl)-[1,2,4]oxadiazol-5-yl]-4-(4,4,4-trifluoro-butyl)-piperazine] | 151 nM
5 | CCOCCN1CCN(c2nc(Cc3ccc(Cl)cc3)no2)CC1 [Cmpd065, 1-[3-(4-Chloro-benzyl)-[1,2,4]oxadiazol-5-yl]-4-(2-ethoxy-ethyl)-piperazine] | 763 nM
6 | COc1cccc(CCN2CCN(c3nc(CC(F)(F)F)no3)CC2)c1 [Cmpd163, 5-(4-(3-Methoxyphenethyl)piperazin-1-yl)-3-(2,2,2-trifluoroethyl)-1,2,4-oxadiazole] | 418 nM
7 | Cc1ccccc1CN1CCN(c2nc(Cc3ccc(F)c(F)c3)no2)CC1 [Cmpd104, 1-[3-(3,4-Difluoro-benzyl)-[1,2,4]oxadiazol-5-yl]-4-(2-methyl-benzyl)-piperazine] | 37 nM
8 | Cc1ccccc1CN1CCN(c2nc(Cc3ccc(Cl)cc3)no2)CC1 [Cmpd058, 1-[3-(4-Chloro-benzyl)-[1,2,4]oxadiazol-5-yl]-4-(2-methyl-benzyl)-piperazine] | 177 nM
9 | COc1cccc(CCN2CCN(c3nc(C(F)(F)c4ccc(F)cc4)no3)CC2)c1 [Cmpd150, 3-(Difluoro(4-fluorophenyl)methyl)-5-(4-(3-methoxyphenethyl)piperazin-1-yl)-1,2,4-oxadiazole] | 199 nM
10 | CC(C)N1CCN(c2nc(Cc3ccc(Cl)cc3)no2)CC1 [Cmpd071, 3-(4-Chlorobenzyl)-5-(4-isopropylpiperazin-1-yl)-1,2,4-oxadiazole] | 133 nM
11 | COc1cccc(CCN2CCN(c3nc(Cc4ccccc4)no3)CC2)c1 [Cmpd042, 1-(3-Benzyl-[1,2,4]oxadiazol-5-yl)-4-[2-(3-methoxy-phenyl)-ethyl]-piperazine] | 3 nM
12 | Fc1cccc(-c2noc(N3CCN(CCc4ccc(Cl)cc4)CC3)n2)c1 [Cmpd031, 5-(4-(4-Chlorophenethyl)piperazin-1-yl)-3-(3-fluorophenyl)-1,2,4-oxadiazole] | 31 nM
13 | Cc1ccccc1CN1CCN(c2nc(C3(c4ccccc4)CC3)no2)CC1 [Cmpd123, 5-(4-(2-Methylbenzyl)piperazin-1-yl)-3-(1-phenylcyclopropyl)-1,2,4-oxadiazole] | 849 nM
14 | FC1(F)Oc2ccc(CN3CCN(c4nc(C5(c6ccccc6)CC5)no4)CC3)cc2O1 [Cmpd128, 5-(4-((2,2-Difluorobenzo[d][1,3]dioxol-5-yl)methyl)piperazin-1-yl)-3-(1-phenylcyclopropyl)-1,2,4-oxadiazole] | 617 nM
15 | COc1cccc(CCN2CCN(c3nc(Cc4cccc(F)c4)no3)CC2)c1 [Cmpd090, 1-[3-(3-Fluoro-benzyl)-[1,2,4]oxadiazol-5-yl]-4-[2-(3-methoxy-phenyl)-ethyl]-piperazine] | 37 nM
16 | Clc1ccc(CCN2CCN(c3nc(-c4ccccc4)no3)CC2)cc1 [Cmpd003, 5-(4-(4-Chlorophenethyl)piperazin-1-yl)-3-phenyl-1,2,4-oxadiazole] | 12 nM
17 | Cc1ccccc1CN1CCN(c2nc(-c3ccc(Cl)cc3)no2)CC1 [Cmpd022, 3-(4-Chlorophenyl)-5-(4-(2-methylbenzyl)piperazin-1-yl)-1,2,4-oxadiazole] | 35 nM
18 | N#CCCCN1CCN(c2nc(CCC(F)(F)F)no2)CC1 [Cmpd181, 4-(4-(3-(3,3,3-Trifluoropropyl)-1,2,4-oxadiazol-5-yl)piperazin-1-yl)butanenitrile] | 584 nM

Row | Structure (SMILES) | EC50
19 | COc1cc(CCN2CCN(c3nc(-c4ccc(Cl)cc4)no3)CC2)ccn1 [Cmpd023, 3-(4-Chlorophenyl)-5-(4-(2-(2-methoxypyridin-4-yl)ethyl)piperazin-1-yl)-1,2,4-oxadiazole] | 18 nM
20 | Clc1ccc(CCN2CCN(c3nc(C4(c5ccccc5)CC4)no3)CC2)cc1 [Cmpd127, 5-(4-(4-Chlorophenethyl)piperazin-1-yl)-3-(1-phenylcyclopropyl)-1,2,4-oxadiazole] | 59 nM
21 | COc1cc(CCN2CCN(c3nc(-c4cccc(Cl)c4)no3)CC2)ccn1 [Cmpd025, 3-(3-Chlorophenyl)-5-(4-(2-(2-methoxypyridin-4-yl)ethyl)piperazin-1-yl)-1,2,4-oxadiazole] | 14 nM
22 | CCCN1CCN(c2nc(Cc3ccc(Cl)cc3)no2)CC1 [Cmpd066, 1-[3-(4-Chloro-benzyl)-[1,2,4]oxadiazol-5-yl]-4-propyl-piperazine] | 145 nM
23 | COc1cc(CCN2CCN(c3nc(C4C[C@@H]5CC[C@H]4C5)no3)CC2)ccn1 (stereo partly drawn) [Cmpd187, 3-((1S,4R)-bicyclo[2.2.1]heptan-2-yl)-5-(4-(2-(2-methoxypyridin-4-yl)ethyl)piperazin-1-yl)-1,2,4-oxadiazole] | 47 nM
24 | FC(F)(F)c1ccc(-c2noc(N3CCN(CCc4ccc(Cl)cc4)CC3)n2)cc1 [Cmpd183, 1-[2-(4-Chloro-phenyl)-ethyl]-4-[3-(4-trifluoromethyl-phenyl)-[1,2,4]oxadiazol-5-yl]-piperazine] | 57 nM
25 | Clc1ccc(-c2noc(N3CCN(CCc4ccccc4)CC3)n2)cc1 [Cmpd020, 3-(4-Chlorophenyl)-5-(4-phenethylpiperazin-1-yl)-1,2,4-oxadiazole] | 10 nM
26 | Fc1cccc(-c2noc(N3CCN(Cc4ccccc4Cl)CC3)n2)c1 [Cmpd029, 5-(4-(2-Chlorobenzyl)piperazin-1-yl)-3-(3-fluorophenyl)-1,2,4-oxadiazole] | 97 nM
27 | N#CCCCN1CCN(c2nc(Cc3ccc(Cl)cc3)no2)CC1 [Cmpd064, 4-{4-[3-(4-Chloro-benzyl)-[1,2,4]oxadiazol-5-yl]-piperazin-1-yl}-butyronitrile] | 54 nM
28 | Cc1ccccc1CN1CCN(c2nc(C3(c4ccc(F)cc4)CC3)no2)CC1 [Cmpd108, 3-(1-(4-Fluorophenyl)cyclopropyl)-5-(4-(2-methylbenzyl)piperazin-1-yl)-1,2,4-oxadiazole] | 758 nM
29 | COc1cccc(CCN2CCN(c3nc(C4(c5ccc(F)cc5)CC4)no3)CC2)c1 [Cmpd109, 3-(1-(4-Fluorophenyl)cyclopropyl)-5-(4-(3-methoxyphenethyl)piperazin-1-yl)-1,2,4-oxadiazole] | 487 nM
30 | COc1cccc(CCN2CCN(c3nc(Cc4cccc(Cl)c4)no3)CC2)c1 [Cmpd076, 1-[3-(3-Chloro-benzyl)-[1,2,4]oxadiazol-5-yl]-4-[2-(3-methoxy-phenyl)-ethyl]-piperazine] | 6 nM
31 | COc1cccc(CCN2CCN(c3nc(Cc4ccc(Cl)cc4)no3)CC2)c1 [Cmpd056, 1-[3-(4-Chloro-benzyl)-[1,2,4]oxadiazol-5-yl]-4-[2-(3-methoxy-phenyl)-ethyl]-piperazine] | 75 nM
32 | Clc1cccc(-c2noc(N3CCN(Cc4ccccc4Cl)CC3)n2)c1 [Cmpd027, 5-(4-(2-Chlorobenzyl)piperazin-1-yl)-3-(3-chlorophenyl)-1,2,4-oxadiazole] | 74 nM
33 | Clc1ccc(CCN2CCN(c3nc(C4C[C@@H]5CC[C@H]4C5)no3)CC2)cc1 (stereo partly drawn) [Cmpd186, 3-((1S,4R)-bicyclo[2.2.1]heptan-2-yl)-5-(4-(4-chlorophenethyl)piperazin-1-yl)-1,2,4-oxadiazole] | 17 nM
34 | Cc1cccc(CN2CCN(c3nc(Cc4cccc(F)c4)no3)CC2)c1 [Cmpd089, 1-[3-(3-Fluoro-benzyl)-[1,2,4]oxadiazol-5-yl]-4-(3-methyl-benzyl)-piperazine] | 485 nM
35 | Fc1ccc(Cc2noc(N3CCN(Cc4ccc(Cl)cc4)CC3)n2)cc1F [Cmpd097, 1-(4-Chloro-benzyl)-4-[3-(3,4-difluoro-benzyl)-[1,2,4]oxadiazol-5-yl]-piperazine] | 486 nM
